Source: ChEMBL document CHEMBL6120940, “Discovery of N-Aryl-N'-[4-(aryloxy)cyclohexyl]squaramide-Based Inhibitors of LXR/SREBP-1c Signaling Pathway Ameliorating Steatotic Liver Disease: Navigating the Role of SIRT6 Activation” (J Med Chem, 2024)
Calls of active or inactive are those of the source. The calls are words filed in the database; no cut-off is given here.

Experiments:
[1] = Tmax in 16 hrs fasted ICR mouse at 20 mg/kg, po measured upto 8 hrs by LC-MS/MS analysis; type: ADME, organism-based; settings: in vivo
[2] = target: T1, Sterol regulatory element-binding protein 1 (Homo sapiens) (UniProt P36956); test: Inhibition of SREBP-1c transcriptional activity in HEK293 cells expressing LXRalpha/RXRalpha assessed as reduction in SRE-luciferase level pretreated with compound for 30 mins followed by T0901317 addition and measured after 12 hrs by Dual-Glo luciferase assay; type: cell-based; settings: dose 2.5-5 µM, time 12.5 hrs
T1 sequence (whole entry): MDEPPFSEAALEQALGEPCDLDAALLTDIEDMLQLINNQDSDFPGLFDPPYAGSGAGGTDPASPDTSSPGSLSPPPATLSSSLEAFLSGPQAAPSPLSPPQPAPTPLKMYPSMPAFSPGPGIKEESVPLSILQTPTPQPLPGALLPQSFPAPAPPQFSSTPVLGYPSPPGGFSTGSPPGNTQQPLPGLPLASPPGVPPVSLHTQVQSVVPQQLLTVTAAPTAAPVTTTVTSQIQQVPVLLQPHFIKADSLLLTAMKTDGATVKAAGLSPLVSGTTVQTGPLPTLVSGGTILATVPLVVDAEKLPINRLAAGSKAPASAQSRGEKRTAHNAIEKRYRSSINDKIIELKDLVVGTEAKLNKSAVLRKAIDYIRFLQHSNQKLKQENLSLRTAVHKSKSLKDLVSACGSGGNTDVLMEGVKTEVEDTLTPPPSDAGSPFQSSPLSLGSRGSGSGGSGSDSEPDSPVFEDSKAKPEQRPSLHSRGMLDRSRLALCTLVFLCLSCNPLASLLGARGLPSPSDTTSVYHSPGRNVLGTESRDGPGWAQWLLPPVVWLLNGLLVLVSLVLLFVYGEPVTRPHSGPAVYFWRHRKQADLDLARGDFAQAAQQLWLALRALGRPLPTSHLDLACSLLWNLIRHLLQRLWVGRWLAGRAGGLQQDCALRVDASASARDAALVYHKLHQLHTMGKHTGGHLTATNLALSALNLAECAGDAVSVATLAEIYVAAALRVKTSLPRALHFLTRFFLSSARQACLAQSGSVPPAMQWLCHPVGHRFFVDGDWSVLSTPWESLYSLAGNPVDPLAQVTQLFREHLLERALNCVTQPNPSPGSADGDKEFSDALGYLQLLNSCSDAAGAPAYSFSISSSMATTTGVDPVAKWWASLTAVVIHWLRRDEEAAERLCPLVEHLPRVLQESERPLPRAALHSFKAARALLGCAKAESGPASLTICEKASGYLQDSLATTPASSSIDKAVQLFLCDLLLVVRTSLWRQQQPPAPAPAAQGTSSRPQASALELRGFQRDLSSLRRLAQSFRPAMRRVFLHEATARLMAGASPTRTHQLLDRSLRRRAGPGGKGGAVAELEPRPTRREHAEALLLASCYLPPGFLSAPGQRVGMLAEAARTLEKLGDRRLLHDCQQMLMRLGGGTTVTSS

Mus musculus [3] = test: Anti-lipogenic activity against high fat died induced male C57BL/6J mouse obesity model assessed as effect on body weight at 15 mg/kg, po administered three times per week and measured for 5 weeks; type: functional, organism-based
[4] = Cmax in 16 hrs fasted ICR mouse at 20 mg/kg, po measured upto 8 hrs by LC-MS/MS analysis; type: ADME, organism-based; settings: in vivo
Mus musculus [5] = test: Anti-lipogenic activity against high fat died induced male C57BL/6J mouse obesity model assessed as downregulation of Fasn level at 15 mg/kg, po administered three times per week and measured after 5 weeks by RT-qPCT analysis; type: functional, organism-based
HepG2 [6] = test: Downregulation of SREBP-1c expression level in nucleus of human HepG2 cells at 10 uM pretreated with compound for 30 mins followed by GW3965 addition and measured after 12 hrs by immunoblot analysis; type: functional, cell-based; settings: time 12.5 hrs
Hepatocyte = test: Inhibition of Srebp-1c level in mouse hepatocyte at 10 uM preincubated with compound for 30 mins followed by T0901317 addition and measured after 12 hrs; type: functional, cell-based; settings: time 12.5 hrs
Mus musculus [7] = test: Anti-lipogenic activity against high fat died induced male C57BL/6J mouse obesity model assessed as reduction hepatic triglyceride level at 15 mg/kg, po administered three times per week and measured for 5 weeks by H and E staining based analysis; type: functional, organism-based
Mus musculus [8] = test: Anti-lipogenic activity against high fat died induced male C57BL/6J mouse obesity model assessed as decrease in hepatic fat content at 15 mg/kg, po administered three times per week and measured for 5 weeks by Oil red O staining based analysis; type: functional, organism-based
HepG2 [9] = test: Downregulation of ACACA mRNA level in human HepG2 cells at 10 uM pretreated with compound for 30 mins followed by T0901317 addition and measured after 12 hrs by RT-qPCR analysis; type: functional, cell-based; settings: time 12.5 hrs
HepG2 [10] = test: Effect on SREBP-1a in human HepG2 cells at 10 uM pretreated with compound for 30 mins followed by T0901317 addition and measured after 12 hrs by immunoblot analysis; type: functional, cell-based; settings: time 12.5 hrs
Mus musculus [11] = test: Anti-lipogenic activity against high fat died induced male C57BL/6J mouse obesity model assessed as downregulation of Cxcl10 mRNA level at 15 mg/kg, po administered three times per week and measured after 5 weeks by RT-qPCT analysis; type: functional, organism-based
HepG2 [12] = test: Downregulation of SCD mRNA level in human HepG2 cells at 10 uM pretreated with compound for 30 mins followed by GW2935 addition and measured after 12 hrs by RT-qPCR analysis; type: functional, cell-based; settings: time 12.5 hrs
HepG2 [13] = test: Lipid lowering effect on palmitic acid induced lipid accumulation in human HepG2 cells at 5 uM incubated for 30 mins by Oil red O staining based analysis; type: functional, cell-based
HepG2 [14] = test: Downregulation of acetylated histone H3K9 level in human HepG2 cells preincubated for 30 mins followed by GW3965 addition and measured after 12 hrs; type: functional, cell-based; settings: dose 5-10 µM, time 12.5 hrs
Mus musculus [15] = test: Anti-lipogenic activity against high fat died induced male C57BL/6J mouse obesity model assessed as reduction ALT level in serum at 15 mg/kg, po administered three times per week and measured for 5 weeks; type: functional, organism-based
HepG2 [16] = test: Downregulation of SREBP-1c expression level in human HepG2 cells at 10 uM pretreated with compound for 30 mins followed by T0901317 addition and measured after 12 hrs by immunocytochemical analysis; type: functional, cell-based; settings: time 12.5 hrs
HepG2 [17] = test: Downregulation of SREBP-1c level in human HepG2 cells at 10 uM preincubated for 30 mins followed by OSS128167 addition and measured after 12 hrs; type: functional, cell-based; settings: time 12.5 hrs
Mus musculus [18] = test: Anti-lipogenic activity against high fat died induced male C57BL/6J mouse obesity model assessed as downregulation of scd level at 15 mg/kg, po administered three times per week and measured after 5 weeks by RT-qPCT analysis; type: functional, organism-based
HepG2 [19] = test: Downregulation of acetylated histone H3K9 level in human HepG2 cells at 5 to 10 uM preincubated for 30 mins followed by OSS128167 addition and measured after 12 hrs; type: functional, cell-based; settings: dose 5-10 µM, time 12.5 hrs
[20] = AUC last in 16 hrs fasted ICR mouse at 20 mg/kg, po measured upto 8 hrs by LC-MS/MS analysis; type: ADME, organism-based; settings: in vivo
HepG2 [21] = test: Downregulation of acetylated histone H3K9 level in human HepG2 cells preincubated for 30 mins followed by T0901317 addition and measured after 12 hrs; type: functional, cell-based; settings: dose 5-10 µM, time 12.5 hrs

For `COc1ccccc1Nc1c(N[C@H]2CC[C@H](Oc3ccc([N+](=O)[O-])cc3)CC2)c(=O)c1=O`, the Tmax [1] was 18 min, the inhibition [2] was “Dose-dependent-effect” and the Activity (Mus musculus [3]) was “inactive”. For the same molecule, the Cmax [4] was 2300 ng/mL, the Activity (Mus musculus [5]) was “Active” and the Activity (HepG2 [6]) was “Active”. The inhibition (Hepatocyte) was “Active”, the Activity (Mus musculus [7]) was “Active” and the Activity (Mus musculus [8]) was “Active”. The Activity (HepG2 [9]) was “Active”, the Activity (HepG2 [10]) was “inactive” and the Activity (Mus musculus [11]) was “Active”. The Activity (HepG2 [12]) was “Active”, the Activity (HepG2 [13]) was “Active” and the Activity (HepG2 [14]) was “Dose-dependent-effect”. The Activity (Mus musculus [15]) was “Active”, the Activity (HepG2 [16]) was “Active” and the Activity (HepG2 [17]) was “inactive”. The Activity (Mus musculus [18]) was “Active”, the Activity (HepG2 [19]) was “inactive” and the AUC(0-t) at 8 h [20] was 2820 ng·h/mL. For the same molecule, the Activity (HepG2 [21]) was “Dose-dependent-effect”.
